For experiment [1], the target named is T1, NAMPT (Homo sapiens, UniProt P43490). Briefly: Time-Resolved Fluorescence Resonance Energy Transfer (TR-FRET) Binding Assay of NAMPT. The following applies: 6.8 nM NAMPT, 200 nM probe, equilibrated 3 hours, no substrates. In a few lines:
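IC50s come from four-parameter logistic fits of control-normalized Em520/Em495 TR-FRET ratios (Ex 337 nm) against compound concentration. Before reading, enzyme, probe, antibody and compound equilibrated for 3 h at room temperature.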
For orientation: In TR-FRET formats the signal depends on donor and acceptor labels being close together.

Experiment [2] deals with T1, NAMPT. Put plainly: TR-FRET Binding Assay of NAMPT with PRPP. The conditions noted are these: 2 nM NAMPT, 2 nM probe, 200 µM PRPP and 2.5 mM ATP, equilibrated 16 hours. In a few lines:
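Substrates present: PRPP at 200 µM and ATP at 2.5 mM, final, alongside 2 nM enzyme, 2 nM tracer and 1 nM terbium anti-His donor in 2% DMSO. A 16-hour equilibration preceded the time-resolved FRET read, allowing compounds to be enzymatically modified.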

The test system of the next experiment is PC3 cells. Put plainly: NAMPT Cell Proliferation Assay (Cell Titer Glo). It is filed as cell-based. The conditions noted are these: Homo sapiens, PC-3, 120 h, incubated 5 days, cell viability. An outline of the steps: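 Viability measured by Cell Titer Glo luminescence after 5-day exposure of attached PC3 cells to compound, dosed as 10-fold serial dilutions ([…]) in RPMI/10% FBS at 37 °C and 5% CO2. Percent inhibition fitted to sigmoidal dose-response curves for IC50.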
On the technique in general: Cellular ATP, detected with luciferase, serves as a proxy for viable cell number.

Usually IC50 stands for the point on the concentration scale where inhibition reaches its midpoint.

T1 sequence (P43490 whole entry): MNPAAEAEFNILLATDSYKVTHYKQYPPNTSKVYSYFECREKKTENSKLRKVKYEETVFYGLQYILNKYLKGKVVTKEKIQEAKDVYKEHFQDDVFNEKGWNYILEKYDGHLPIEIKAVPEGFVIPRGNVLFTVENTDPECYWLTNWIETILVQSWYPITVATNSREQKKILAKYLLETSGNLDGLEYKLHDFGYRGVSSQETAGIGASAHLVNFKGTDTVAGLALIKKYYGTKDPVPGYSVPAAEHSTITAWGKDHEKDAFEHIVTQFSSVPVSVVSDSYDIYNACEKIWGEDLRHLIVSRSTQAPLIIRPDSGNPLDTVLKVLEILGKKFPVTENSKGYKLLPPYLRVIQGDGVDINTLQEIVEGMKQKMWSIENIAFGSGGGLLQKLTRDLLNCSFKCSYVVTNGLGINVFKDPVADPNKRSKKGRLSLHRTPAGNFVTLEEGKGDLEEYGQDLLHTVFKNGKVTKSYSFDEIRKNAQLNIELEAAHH

On to `O=C(CN1CCOCC1)N1CCC(c2ccc(NC(=O)N3CC(c4cccnc4)C3)cc2)C1` (stereo not drawn) [Example 263, N-{4-[1-(morpholin-4-ylacetyl)pyrrolidin-3-yl]phenyl}-3-(pyridin-3-yl)azetidine-1-carboxamide], for which the half-inhibitory concentration (IC50) worked out at 143 nM at NAMPT [1], 0.239 nM at NAMPT [2] and 365 nM in the experiment with PC3 cells.
Turning to `O=C(Nc1ccc(C2CCN(C(=O)c3ccoc3)C2)cc1)N1CC(c2cccnc2)C1` (stereo not drawn) [Example 264, N-{4-[1-(furan-3-ylcarbonyl)pyrrolidin-3-yl]phenyl}-3-(pyridin-3-yl)azetidine-1-carboxamide], the IC50 on NAMPT [1] worked out at 40.9 nM; at NAMPT [2], 0.188 nM; in the experiment with PC3 cells, 35.1 nM.
The like results for `O=C(Nc1ccc(C2CCN(C(=O)c3nccs3)C2)cc1)N1CC(c2cccnc2)C1` (stereo not drawn) [Example 267, 3-(pyridin-3-yl)-N-{4-[1-(1,3-thiazol-2-ylcarbonyl)pyrrolidin-3-yl]phenyl}azetidine-1-carboxamide] were, in that order, 22.5 nM, 0.297 nM and 17.8 nM.
The like results for `O=C(Nc1ccc(C2CCN(C(=O)c3ccsc3)C2)cc1)N1CC(c2cccnc2)C1` (stereo not drawn) [Example 268, 3-(pyridin-3-yl)-N-{4-[1-(thiophen-3-ylcarbonyl)pyrrolidin-3-yl]phenyl}azetidine-1-carboxamide] were, in that order, 36.5 nM, 0.225 nM and 22.8 nM.
Taken in the same sequence, the figures for `Cc1ccsc1C(=O)N1CCC(c2ccc(NC(=O)N3CC(c4cccnc4)C3)cc2)C1` (stereo not drawn) [Example 270, N-(4-{1-[(3-methylthiophen-2-yl)carbonyl]pyrrolidin-3-yl}phenyl)-3-(pyridin-3-yl)azetidine-1-carboxamide] were 8.17 nM, 0.196 nM and 19.5 nM.
`O=C(CCC(F)(F)F)N1CCC(c2ccc(NC(=O)N3CC(c4cccnc4)C3)cc2)C1` (stereo not drawn) [Example 271, 3-(pyridin-3-yl)-N-{4-[1-(4,4,4-trifluorobutanoyl)pyrrolidin-3-yl]phenyl}azetidine-1-carboxamide]: the results for the concentration for half-maximal inhibition (IC50) on NAMPT [1], at NAMPT [2] and in the experiment on PC3 cells were 46.9 nM, 0.279 nM and 60.4 nM, respectively.
`CN1CCN(CC(=O)N2CCC(c3ccc(NC(=O)N4CC(c5cccnc5)C4)cc3)C2)CC1` (stereo not drawn) [Example 272, N-(4-{1-[(4-methylpiperazin-1-yl)acetyl]pyrrolidin-3-yl}phenyl)-3-(pyridin-3-yl)azetidine-1-carboxamide]: the IC50 at NAMPT [1] is 90.7 nM; at NAMPT [2], 0.241 nM; with PC3 cells it was 222 nM.
The like results for `CCOCCC(=O)N1CCC(c2ccc(NC(=O)N3CC(c4cccnc4)C3)cc2)C1` (stereo not drawn) [Example 274, N-{4-[1-(3-ethoxypropanoyl)pyrrolidin-3-yl]phenyl}-3-(pyridin-3-yl)azetidine-1-carboxamide] were, in that order, 82.2 nM, 0.264 nM and 68.5 nM.
On to `CC(C)CCC(=O)N1CCC(c2ccc(NC(=O)N3CC(c4cccnc4)C3)cc2)C1` (stereo not drawn) [Example 275, N-{4-[1-(4-methylpentanoyl)pyrrolidin-3-yl]phenyl}-3-(pyridin-3-yl)azetidine-1-carboxamide], for which the values for the concentration for half-maximal inhibition (IC50) on NAMPT [1], on NAMPT [2] and in the experiment on PC3 cells were 38.3 nM, 0.363 nM and 34.5 nM, respectively.
Taken in the same sequence, the figures for `CC1(C(=O)N2CCC(c3ccc(NC(=O)N4CC(c5cccnc5)C4)cc3)C2)CCCCC1` (stereo not drawn) [Example 276, N-(4-{1-[(1-methylcyclohexyl)carbonyl]pyrrolidin-3-yl}phenyl)-3-(pyridin-3-yl)azetidine-1-carboxamide] were 12.4 nM, 0.347 nM and 10 nM.
As to `O=C(CC1CCCCC1)N1CCC(c2ccc(NC(=O)N3CC(c4cccnc4)C3)cc2)C1` (stereo not drawn) [Example 278, N-{4-[1-(cyclohexylacetyl)pyrrolidin-3-yl]phenyl}-3-(pyridin-3-yl)azetidine-1-carboxamide], the IC50 at NAMPT [1] turned out to be 19.7 nM; at NAMPT [2], 0.213 nM; in the experiment on PC3 cells, 30.6 nM.
Taken in the same sequence, the figures for `CCC(=O)N1CCC(c2ccc(NC(=O)N3CC(c4cccnc4)C3)cc2)C1` (stereo not drawn) [Example 279, N-[4-(1-propanoylpyrrolidin-3-yl)phenyl]-3-(pyridin-3-yl)azetidine-1-carboxamide] were 92.1 nM, 0.204 nM and 47.6 nM.
For `CC(C)(C)C(=O)N1CCC(c2ccc(NC(=O)N3CC(c4cccnc4)C3)cc2)C1` (stereo not drawn) [Example 282, N-{4-[1-(2,2-dimethylpropanoyl)pyrrolidin-3-yl]phenyl}-3-(pyridin-3-yl)azetidine-1-carboxamide], the IC50 at NAMPT [1] turned out to be 26.6 nM; at NAMPT [2], 0.219 nM; in the experiment on PC3 cells it was 14.3 nM.
On to `Cc1ccc(C(=O)N2CCC(c3ccc(NC(=O)N4CC(c5cccnc5)C4)cc3)C2)s1` (stereo not drawn) [Example 283, N-(4-{1-[(5-methylthiophen-2-yl)carbonyl]pyrrolidin-3-yl}phenyl)-3-(pyridin-3-yl)azetidine-1-carboxamide], for which the IC50 at NAMPT [1] worked out at 33.7 nM; on NAMPT [2] it was 0.266 nM; with PC3 cells, 61.7 nM.
Taken in the same sequence, the figures for `O=C(Nc1ccc(C2CCN(C(=O)c3cccs3)C2)cc1)N1CC(c2cccnc2)C1` (stereo not drawn) [Example 284, 3-(pyridin-3-yl)-N-{4-[1-(thiophen-2-ylcarbonyl)pyrrolidin-3-yl]phenyl}azetidine-1-carboxamide] were 18.3 nM, 0.204 nM and 22.3 nM.
Consider `O=C(CCN1CCCCC1)N1CCC(c2ccc(NC(=O)N3CC(c4cccnc4)C3)cc2)C1` (stereo not drawn) [Example 287, N-(4-{1-[3-(piperidin-1-yl)propanoyl]pyrrolidin-3-yl}phenyl)-3-(pyridin-3-yl)azetidine-1-carboxamide], for which the half-maximal inhibitory concentration (IC50) was determined as 30.1 nM on NAMPT [1], 0.189 nM on NAMPT [2] and 37.4 nM in the experiment on PC3 cells.
Take `CCOCC(=O)N1CCC(c2ccc(NC(=O)N3CC(c4cccnc4)C3)cc2)C1` (stereo not drawn) [Example 288, N-{4-[1-(ethoxyacetyl)pyrrolidin-3-yl]phenyl}-3-(pyridin-3-yl)azetidine-1-carboxamide]: the IC50 at NAMPT [1] was 117 nM; on NAMPT [2], 0.227 nM; with PC3 cells, 84 nM.
The like results for `CC(C)(C)CC(=O)N1CCC(c2ccc(NC(=O)N3CC(c4cccnc4)C3)cc2)C1` (stereo not drawn) [Example 289, N-{4-[1-(3,3-dimethylbutanoyl)pyrrolidin-3-yl]phenyl}-3-(pyridin-3-yl)azetidine-1-carboxamide] were, in that order, 29.6 nM, 0.204 nM and 35.2 nM.
The like results for `CCC(C)(C)C(=O)N1CCC(c2ccc(NC(=O)N3CC(c4cccnc4)C3)cc2)C1` (stereo not drawn) [Example 290, N-{4-[1-(2,2-dimethylbutanoyl)pyrrolidin-3-yl]phenyl}-3-(pyridin-3-yl)azetidine-1-carboxamide] were, in that order, 11.1 nM, 0.224 nM and 10.3 nM.
With `CC(=O)C(=O)N1CCC(c2ccc(NC(=O)N3CC(c4cccnc4)C3)cc2)C1` (stereo not drawn) [Example 291, N-{4-[1-(2-oxopropanoyl)pyrrolidin-3-yl]phenyl}-3-(pyridin-3-yl)azetidine-1-carboxamide], the IC50 came out at 25.8 nM on NAMPT [1], 0.207 nM on NAMPT [2] and 150 nM in the experiment on PC3 cells.
The like results for `COCC(=O)N1CCC(c2ccc(NC(=O)N3CC(c4cccnc4)C3)cc2)C1` (stereo not drawn) [Example 292, N-{4-[1-(methoxyacetyl)pyrrolidin-3-yl]phenyl}-3-(pyridin-3-yl)azetidine-1-carboxamide] were, in that order, 268 nM, 0.259 nM and 87.8 nM.
With `O=C(Nc1ccc(C2CCN(C(=O)C3CCCCC3)C2)cc1)N1CC(c2cccnc2)C1` (stereo not drawn) [Example 293, N-{4-[1-(cyclohexylcarbonyl)pyrrolidin-3-yl]phenyl}-3-(pyridin-3-yl)azetidine-1-carboxamide], the values for the half-maximal inhibitory concentration (IC50) at NAMPT [1], on NAMPT [2] and in the experiment with PC3 cells were 56.6 nM, 0.21 nM and 70.5 nM, respectively.
Taken in the same sequence, the figures for `CC(C)CC(=O)N1CCC(c2ccc(NC(=O)N3CC(c4cccnc4)C3)cc2)C1` (stereo not drawn) [Example 294, N-{4-[1-(3-methylbutanoyl)pyrrolidin-3-yl]phenyl}-3-(pyridin-3-yl)azetidine-1-carboxamide] were 44.3 nM, 0.2 nM and 60.9 nM.
For `O=C(Nc1ccc(C2CCN(C(=O)C3CCCC3)C2)cc1)N1CC(c2cccnc2)C1` (stereo not drawn) [Example 295, N-{4-[1-(cyclopentylcarbonyl)pyrrolidin-3-yl]phenyl}-3-(pyridin-3-yl)azetidine-1-carboxamide], the concentration for half-maximal inhibition (IC50) came to 50.7 nM on NAMPT [1], 0.272 nM at NAMPT [2] and 66.5 nM in the experiment with PC3 cells.
The like results for `CC(C)C(C)C(=O)N1CCC(c2ccc(NC(=O)N3CC(c4cccnc4)C3)cc2)C1` (stereo not drawn) [Example 296, N-{4-[1-(2,3-dimethylbutanoyl)pyrrolidin-3-yl]phenyl}-3-(pyridin-3-yl)azetidine-1-carboxamide] were, in that order, 26.4 nM, 0.243 nM and 19.8 nM.
The like results for `CCCCC(=O)N1CC[C@@H](Oc2ccc(NC(=O)N3CC(c4cccnc4)C3)cc2)C1` [Example 297, N-(4-{[(3R)-1-pentanoylpyrrolidin-3-yl]oxy}phenyl)-3-(pyridin-3-yl)azetidine-1-carboxamide] were, in that order, 56.6 nM, 0.236 nM and 18.2 nM.

(Values after patent US9296723B2, “NAMPT inhibitors” (AbbVie Inc., priority 2012, dated 2016).)
